Reference: patent US7718651B2, “Inhibitors of FtsZ and uses thereof” (priority 2002, dated 2010)
Values after ≈ are worked out from the molar mass of the structure shown. Values joined by “and” are separate entries in the source; they are usually repeats but may differ in a detail not shown here. Equal entries are not always repeated. “Also recorded” adds a separate entry of the source. Where two headings read alike, the source gives them in different places.

Legend:
Salmonella typhimurium = assay: Microdilution broth MIC, Salmonella typhimurium; assay type: cell-based
M. tuberculosis H37Ra = assay: MIC/MBC, colorimetric (alamar blue) microdilution broth assay; assay type: cell-based; settings: for log reduction in cfu/mL: H37Ra
Escherichia coli = assay: Microdilution broth MIC, Escherichia coli; assay type: cell-based
S. epidermidis = assay: Microdilution broth MIC, S. epidermidis; assay type: cell-based; settings: Staphylococcus epidermidis; S. epidermidis SRI 1296, Trimethoprim resistant
[1] = tested on: panel of Gram positive rods and cocci; assay: Microdilution broth MIC against a panel of bacteria; assay type: cell-based
Staphylococcus aureus = assay: Microdilution broth MIC, Staphylococcus aureus; assay type: cell-based
M. tuberculosis H37Rv [2] = assay: MIC99 determination, BACTEC 460 radiometric system; assay type: cell-based; settings: Mycobacterium tuberculosis
Enterococcus hirae = assay: Microdilution broth MIC, Enterococcus hirae; assay type: cell-based; settings: Enterococcus hirae SRI 76, Wild type
Bacillus subtilis = assay: Microdilution broth MIC, Bacillus subtilis; assay type: cell-based; settings: Bacillus subtilis SRI 1032, Wild type
E. faecalis = assay: Microdilution broth MIC, E. faecalis; assay type: cell-based
Vero cells = assay: Cytotoxicity in Vero cells (MTS assay); assay type: cell-based; settings: Chlorocebus sabaeus, Vero cells
M. tuberculosis H37Rv [3] = assay: microbe, parasite or virus in culture; assay type: cell-based; settings: for inhibition of growth at 12.5 µg/mL: Mycobacterium tuberculosis, M. tuberculosis H37Rv, at 12.5% μg/ml (so in the source), read-out: Primary Screen PI (% inhibition of growth); for activity against M. tuberculosis H37Rv in the primary screen: in words
E. faecium = assay: Microdilution broth MIC, E. faecium; assay type: cell-based; settings: Enterococcus faecium; E. faecium SRI 1421, Vancomycin resistant
M. tuberculosis FtsZ [4] = molecular target: T1, M. tuberculosis FtsZ (Mycobacterium tuberculosis, UniProt P9WN95); assay: biochemical; settings: read-out: FtsZ polymerization ID50
T1 sequence (P9WN95 whole entry, looked up): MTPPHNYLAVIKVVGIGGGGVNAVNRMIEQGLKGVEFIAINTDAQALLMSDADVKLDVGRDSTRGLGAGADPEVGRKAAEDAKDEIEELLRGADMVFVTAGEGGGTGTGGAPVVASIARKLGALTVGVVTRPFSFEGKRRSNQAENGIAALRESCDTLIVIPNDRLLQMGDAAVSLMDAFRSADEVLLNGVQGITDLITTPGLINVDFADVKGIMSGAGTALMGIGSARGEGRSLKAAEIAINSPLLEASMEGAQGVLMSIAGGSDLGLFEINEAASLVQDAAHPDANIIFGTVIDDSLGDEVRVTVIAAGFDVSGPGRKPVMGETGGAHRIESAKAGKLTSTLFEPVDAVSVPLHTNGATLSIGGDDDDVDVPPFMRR

M. tuberculosis FtsZ [5] = molecular target: T1, M. tuberculosis FtsZ; assay: biochemical; settings: 100 μM compound, Table 6; read-out: M. tuberculosis FtsZ GTP Hydrolysis % Inhibition (100 μM)
[6] = tested on: Mycobacterium bovis (BCG); assay type: cell-based
M. tuberculosis Erdman = assay: Activity in M. tuberculosis-infected mouse bone marrow macrophages; assay type: cell-based; settings: for EC90: Mycobacterium tuberculosis, ERDMAN, Bone marrow macrophage, 168 h
Procedure: Toxicity was determined by visual inspection.

bovine tubulin = assay: Light scattering assay for tubulin polymerization; assay type: biochemical
[7] = M. tuberculosis H37Rv, read-out: MIC99
[8] = 72 h, 72 h exposure, Table 3, read-out: IC50

Compound: CCOC(=O)Nc1cc(NC(C)CCCN(CC)CC)c2nc(-c3ccccc3)c(-c3ccccc3)nc2n1 (stereo not shown) [SRI-3072, [8-(4-Diethylamino-1-methyl-butylamino)-2,3-diphenyl-pyrido[2,3-b]pyrazin-6-yl]-carbamic acid ethyl ester]
- MIC (Salmonella typhimurium; Salmonella enterica, TYPHIMURIUM): 64 µg/mL (≈ 122 µM)
- activity against S. typhimurium deep rough (rfa) mutant (Salmonella typhimurium; in words): active
- log reduction in cfu/mL (M. tuberculosis H37Ra; 0.95 μM drug, six days): 0.98±0.11
- log reduction in cfu/mL (M. tuberculosis H37Ra; 1.9 μM drug, six days): 1.7±0.06
- log reduction in cfu/mL (M. tuberculosis H37Ra; 3.8 μM drug, six days): 2.0±0.12
- MBC (M. tuberculosis H37Ra; Mycobacterium tuberculosis, H37RA, 144 h, M. tuberculosis H37Ra, six days): 1 µg/mL to 2 µg/mL and 1.9 µM to 3.8 µM
- MIC (M. tuberculosis H37Ra; Mycobacterium tuberculosis, H37RA, M. tuberculosis H37Ra, FIG. 2 legend): 250 µg/mL (≈ 475 µM)
- MIC (M. tuberculosis H37Ra; Mycobacterium tuberculosis, H37RA, M. tuberculosis H37Ra, read-out: MIC): 0.25 µg/mL and 0.47 µM
- MIC (Escherichia coli; Escherichia coli SRI 1218, Wild type): > 64 µg/mL
- activity against E. coli (Escherichia coli; in words): not active
- MIC (S. epidermidis): 32 µg/mL (≈ 60.8 µM)
- MIC ([1]; Bacillus subtilis, read-out: MICs against expanded panel of Gram positive rods and cocci): 32 to 64 µg/mL (≈ 60.8 to 122 µM)
- activity against several Gram-positive bacteria, including drug resistant strains ([1]; in words): moderate activity
- MIC (Staphylococcus aureus; S. aureus SRI 1186, Wild type): 32 µg/mL (≈ 60.8 µM)
- MIC (Staphylococcus aureus; S. aureus SRI 1279, Methicillin resistant): 64 µg/mL (≈ 122 µM)
- MIC (Staphylococcus aureus; S. aureus SRI 1343, Multi-drug resistant): 64 µg/mL (≈ 122 µM)
- MIC (Staphylococcus aureus; Staphylocococcus aureus SRI 1323, Wild type): 32 µg/mL (≈ 60.8 µM)
- MIC (Staphylococcus aureus; strain not named): 32 µg/mL (≈ 60.8 µM)
- MIC (M. tuberculosis H37Rv [2]; H37RV, MIC referred to for dosing of the macrophage assay, strain not stated, read-out: MIC): 0.2 µg/mL (≈ 0.38 µM)
- MIC99 (M. tuberculosis H37Rv [2]; M. tuberculosis H37Rv, Table 3, read-out: Screen 2 MIC99): 0.15 µg/mL
- MIC99 (M. tuberculosis H37Rv [2]; [7]): 0.15 µg/mL and 0.28 µM
- MIC (M. tuberculosis H37Rv [2]; wildtype (H37Rv), Table 5, read-out: MIC, WT): 0.2 µg/mL (≈ 0.38 µM)
- MIC (Enterococcus hirae): 32 µg/mL (≈ 60.8 µM)
- MIC (Bacillus subtilis): 16 µg/mL (≈ 30.4 µM)
- MIC (E. faecalis; E. faecalis SRl 1295, Wild type): 64 µg/mL (≈ 122 µM)
- MIC (E. faecalis; Enterococcus faecalis, E. faecalis SM 1414, Vancomycin resistant, read-out: MIC): 64 µg/mL (≈ 122 µM)
- IC50 (Vero cells; [8]): 6.3 µg/mL (≈ 12 µM)
- IC50 (Vero cells; read-out: IC50): 6.3 µg/mL (≈ 12 µM)
- inhibition of growth at 12.5 µg/mL (M. tuberculosis H37Rv [3]): 100%
- activity against M. tuberculosis H37Rv in the primary screen (M. tuberculosis H37Rv [3]): demonstrated activity
- MIC (E. faecium): 32 µg/mL (≈ 60.8 µM)
- IC50 (M. tuberculosis FtsZ [4]): 52 ± 12 µM
- inhibition at 100 µM (M. tuberculosis FtsZ [5]): 20%
- cell length / morphology [6]: much longer and branched
- recovery after washing to remove drug ([6]; BCG cultured cells): do not recover
- EC90 (M. tuberculosis Erdman; after seven days, read-out: EC90): 0.12 µg/mL
- EC90 (M. tuberculosis Erdman; after seven days, read-out: EC90 (90% reduction in mycobacterial growth)): 230 nM
- EC99 (M. tuberculosis Erdman; after seven days): 1.42 µg/mL
- EC99 (99% reduction in mycobacterial growth) (M. tuberculosis Erdman; after seven days): 2.7 µM
- growth of M. tuberculosis in infected mouse bone marrow macrophages (M. tuberculosis Erdman; in words): inhibit the growth
- inhibition of tubulin polymerization (bovine tubulin; in words, 100 μM): no inhibition of tubulin was seen; also recorded: no effect
- Bovine Brain Tubulin Polymerization ID50 (bovine tubulin; tubulin 20 μM, 1 mM GTP, Table 6): no inhibition (100 μM)

Compound: CCOC(=O)Nc1cc2c(c(N)n1)N=C(c1ccccc1)CCN2 [SRI-7614, (1-Amino-8-phenyl-6,7-dihydro-5H-2,5,9-triaza-benzocyclohepten-3-yl)-carbamic acid ethyl ester]
- MIC99 (M. tuberculosis H37Rv [2]; H37RV): 6.25 µg/mL
- MIC99 (M. tuberculosis H37Rv [2]; H37RV, read-out: Screen 2 MIC99): 6.25 µg/mL
- MIC99 (M. tuberculosis H37Rv [2]; [7]): 19 µM
- IC50 (Vero cells; [8]): > 200 µg/mL
- IC50 (Vero cells; read-out: IC50): > 200 µg/mL
- inhibition of growth at 12.5 µg/mL (M. tuberculosis H37Rv [3]): 100%
- activity against M. tuberculosis H37Rv in the primary screen (M. tuberculosis H37Rv [3]): demonstrated activity
- IC50 (M. tuberculosis FtsZ [4]): 60 µM
- inhibition at 100 µM (M. tuberculosis FtsZ [5]): 25%
- IC50 (bovine tubulin; read-out: tubulin polymerization ID50): 4 µM
